The assay concerns the target T1, recombinant 15-PGDH (Homo sapiens, UniProt P15428).
T1 sequence (P15428 1-266): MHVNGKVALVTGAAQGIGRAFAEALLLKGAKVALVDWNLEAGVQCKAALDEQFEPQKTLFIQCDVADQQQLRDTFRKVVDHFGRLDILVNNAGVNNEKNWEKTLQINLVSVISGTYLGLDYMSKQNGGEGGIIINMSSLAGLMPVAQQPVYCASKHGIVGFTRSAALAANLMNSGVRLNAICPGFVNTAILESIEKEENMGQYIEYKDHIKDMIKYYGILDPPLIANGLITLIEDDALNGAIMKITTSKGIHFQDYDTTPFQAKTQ
Put plainly: IC50 for inhibiting enzymatic activity of recombinant 15-PGDH in an in vitro assay. The class given is biochemical. The settings on record: recombinant human 15-PGDH at 5 nM; for IC50: in vitro.

[1] abbreviates: read-out: Enzyme Inhibitor IC50 (nM) at 5 nM 15-PGDH.
The mark [2] stands for this setting: Enzyme Inhibitor IC50 (nM) at 5 nM 15-PGDH.

Where two headings read alike, the source gives them in different places.

Usually IC50 stands for the concentration needed to halve the response being measured. Turning to `CCCC[S@@+]([O-])c1sc2nc(-c3nccs3)cc(-c3cncn3C)c2c1N` (single isomer, unassigned) [(+)-SW 217985], under setting [1], the IC50 worked out at 0.9 nM. Take `CCCC[S@+]([O-])c1sc2nc(-c3nccs3)cc(-c3cncn3C)c2c1N` (single isomer, unassigned) [(−)-SW 217986]: the IC50 under setting [1] turned out to be 765 nM. `CCCC[S+]([O-])c1sc2nc(-c3nccs3)cc(-c3ccc(C(=O)NCCO)cc3)c2c1N` (stereo not drawn) [SW 212831, 4-(3-amino-2-(butylsulfinyl)-6-(thiazol-2-yl)thieno[2,3-b]pyridin-4-yl)-N-(2-hydroxyethyl)benzamide]: the IC50 under setting [2] is 4 nM. With `CCCC[S+]([O-])c1sc2nc(-c3nccs3)cc(-c3ccc(COC(=O)NCCN(C)C)cc3)c2c1N` (stereo not drawn) [SW 212834, 4-(3-amino-2-(butylsulfinyl)-6-(thiazol-2-yl)thieno[2,3-b]pyridin-4-yl)benzyl (2-(dimethylamino)ethyl)carbamate], the IC50 under setting [2] amounted to 3.3 nM. Regarding `C=CCNC(=O)COc1ccc(-c2cc(-c3nccs3)nc3sc([S+]([O-])CCCC)c(N)c23)cc1` (stereo not drawn) [SW 212835, N-allyl-2-(4-(3-amino-2-(butylsulfinyl)-6-(thiazol-2-yl)thieno[2,3-b]pyridin-4-yl)phenoxy)acetamide], the IC50 under setting [2] stood at 4.2 nM. With `CCCC[S+]([O-])c1sc2nc(-c3nccs3)cc(-c3ccc(CC(=O)OC)cc3)c2c1N` (stereo not drawn) [SW 213150, Methyl 2-(4-(3-amino-2-(butylsulfinyl)-6-(thiazol-2-yl)thieno[2,3-b]pyridin-4-yl)phenyl)acetate], the IC50 under setting [2] stood at 4 nM. As for `CCCC[S+]([O-])c1sc2nc(-c3nccs3)cc(-c3ccc(COCCO)cc3)c2c1N` (stereo not drawn) [SW 213153, 2-((4-(3-amino-2-(butylsulfinyl)-6-(thiazol-2-yl)thieno[2,3-b]pyridin-4-yl)benzyl)oxy)ethan-1-ol], the IC50 under setting [2] was determined as 2 nM. Turning to `CCCC[S+]([O-])c1sc2nc(-c3nccs3)cc(-c3cnc(OC)n3C)c2c1N` (stereo not drawn) [SW 213155, 2-(butylsulfinyl)-4-(2-methoxy-1-methyl-1H-imidazol-5-yl)-6-(thiazol-2-yl)thieno[2,3-b]pyridin-3-amine], the IC50 under setting [2] came to 19 nM.

As for `CCCC[S+]([O-])c1sc2nc(-c3ncc(C)s3)cc(-c3cnc(C)n3C)c2c1N` (stereo not drawn) [SW 213208, 2-(butylsulfinyl)-4-(1,2-dimethyl-1H-imidazol-5-yl)-6-(5-methylthiazol-2-yl)thieno[2,3-b]pyridin-3-amine], under setting [2], the IC50 came out at 7.5 nM.

Consider `CCCC[S+]([O-])c1sc2nc(-c3nccs3)cc(-c3ccc(CNC(=O)NCCO)cc3)c2c1N` (stereo not drawn) [SW 213209, 1-(4-(3-amino-2-(butylsulfinyl)-6-(thiazol-2-yl)thieno[2,3-b]pyridin-4-yl)benzyl)-3-(2-hydroxyethyl)urea], for which the IC50 under setting [2] was 2.8 nM.

With `CCCC[S+]([O-])c1sc2nc(-c3nccs3)cc(-c3ccc(CNC(=O)CN(C)C)cc3)c2c1N` (stereo not drawn) [SW 213210, N-(4-(3-amino-2-(butylsulfinyl)-6-(thiazol-2-yl)thieno[2,3-b]pyridin-4-yl)benzyl)-2-(dimethylamino)acetamide], under setting [2], the IC50 amounted to 5 nM. In the case of `CCCC[S+]([O-])c1sc2nc(-c3nccs3)cc(-c3ccc(CNC(=O)COC)cc3)c2c1N` (stereo not drawn) [SW 213211, N-(4-(3-amino-2-(butylsulfinyl)-6-(thiazol-2-yl)thieno[2,3-b]pyridin-4-yl)benzyl)-2-methoxyacetamide], the half-maximal inhibitory concentration (IC50) under setting [2] was 2.9 nM. Consider `CCCC[S+]([O-])c1sc2nc(-c3nccs3)cc(-c3ccnn3C)c2c1N` (stereo not drawn) [SW 217780, 2-(butylsulfinyl)-4-(1-methyl-1H-pyrazol-5-yl)-6-(thiazol-2-yl)thieno[2,3-b]pyridin-3-amine], for which, under setting [2], the IC50 was 3.1 nM. As to `CCCC[S+]([O-])c1sc2nc(-c3nccs3)cc(-c3cnnn3C)c2c1N` (stereo not drawn) [SW 217782, 2-(butylsulfinyl)-4-(1-methyl-1H-1,2,3-triazol-5-yl)-6-(thiazol-2-yl)thieno[2,3-b]pyridin-3-amine], under setting [2], the IC50 is 5.4 nM. Take `CCCC[S+]([O-])c1sc2nc(-c3nccs3)cc(-c3cocn3)c2c1N` (stereo not drawn) [SW 217936, 2-(butylsulfinyl)-4-(oxazol-4-yl)-6-(thiazol-2-yl)thieno[2,3-b]pyridin-3-amine]: under setting [2], the IC50 worked out at 2.2 nM. For the molecule `CCCC[S+]([O-])c1sc2nc(-c3nccs3)cc(-c3nc(C)cs3)c2c1N` (stereo not drawn) [SW 217937, 2-(butylsulfinyl)-4-(4-methylthiazol-2-yl)-6-(thiazol-2-yl)thieno[2,3-b]pyridin-3-amine], the IC50 under setting [2] was 1.8 nM. The same measure, in the same setting: the value for `CCCC[S+]([O-])c1sc2nc(-c3nccs3)cc(-c3scnc3C)c2c1N` (stereo not drawn) [SW 217938, 2-(butylsulfinyl)-4-(4-methylthiazol-5-yl)-6-(thiazol-2-yl)thieno[2,3-b]pyridin-3-amine] was 2.1 nM. Regarding `CCCC[S+]([O-])c1sc2nc(-c3nccs3)cc(-c3ocnc3C)c2c1N` (stereo not drawn) [SW 217939, 2-(butylsulfinyl)-4-(4-methyloxazol-5-yl)-6-(thiazol-2-yl)thieno[2,3-b]pyridin-3-amine], the IC50 under setting [2] is 4.5 nM.

`COCCC[S+]([O-])c1sc2nc(-c3nccs3)nc(-c3ccccc3)c2c1N` (stereo not drawn) [SW 217995, 6-((3-methoxypropyl)sulfinyl)-4-phenyl-2-(thiazol-2-yl)thieno[2,3-d]pyrimidin-5-amine]: the IC50 under setting [2] amounted to 3 nM.

Consider `COCC[S+]([O-])c1sc2nc(-c3nccs3)nc(-c3ccccc3)c2c1N` (stereo not drawn) [SW 217996, 6-((2-methoxyethyl)sulfinyl)-4-phenyl-2-(thiazol-2-yl)thieno[2,3-d]pyrimidin-5-amine], for which the IC50 under setting [2] was 3.4 nM. `Nc1c([S+]([O-])c2ccccc2)sc2nc(-c3nccs3)cc(-c3ccc(OCCO)cc3)c12` (stereo not drawn) [SW 217997, 2-(4-(3-amino-2-(phenylsulfinyl)-6-(thiazol-2-yl)thieno[2,3-b]pyridin-4-yl)phenoxy)ethan-1-ol]: the IC50 under setting [2] stood at 12 nM. Take `CCCC[S+]([O-])c1sc2nc(-c3nccs3)cc(-c3ccc(OCCF)cc3)c2c1N` (stereo not drawn) [SW 217998, 2-(butylsulfinyl)-4-(4-(2-fluoroethoxy)phenyl)-6-(thiazol-2-yl)thieno[2,3-b]pyridin-3-amine]: under setting [2], the IC50 amounted to 3.2 nM. `CCCC[S+]([O-])c1sc2nc(-c3cccs3)cc(-c3ccccc3)c2c1NC(C)=O` (stereo not drawn) [SW 218030, N-(2-(butylsulfinyl)-4-phenyl-6-(thiophen-2-yl)thieno[2,3-b]pyridin-3-yl)acetamide]: the IC50 under setting [2] stood at 6890 nM. Regarding `CCCC[S+]([O-])c1sc2nc(-c3cccs3)cc(-c3ccccc3)c2c1NC(=O)OC` (stereo not drawn) [SW 218031, methyl (2-(butylsulfinyl)-4-phenyl-6-(thiophen-2-yl)thieno[2,3-b]pyridin-3-yl)carbamate], the IC50 under setting [2] was 1380 nM. The same measure, in the same setting: the value for `Nc1c(C(=O)N2CCCCC2)sc2nc(-c3cccs3)cc(-c3ccccc3)c12` [SW 218331, (3-amino-4-phenyl-6-(thiophen-2-yl)thieno[2,3-b]pyridin-2-yl)(piperidin-1-yl)methanone] was 41 nM; that for `CCCNS(=O)(=O)c1sc2nc(-c3cccs3)cc(-c3ccccc3)c2c1N` [SW 218332, 3-amino-4-phenyl-N-propyl-6-(thiophen-2-yl)thieno[2,3-b]pyridine-2-sulfonamide] was 113 nM. Still for that read-out and setting: the value for `CCOC[S+]([O-])c1sc2nc(-c3nccs3)cc(-c3cnc(C)n3C)c2c1N` (stereo not drawn) [SW 218398, 4-(1,2-dimethyl-1H-imidazol-5-yl)-2-((ethoxymethyl)sulfinyl)-6-(thiazol-2-yl)thieno[2,3-b]pyridin-3-amine] was 9.1 nM; that for `CCCC[S+]([O-])c1sc2nc(-c3cccs3)cc(-c3ccccc3)c2c1O` (stereo not drawn) [SW 218399, 2-(butylsulfinyl)-4-phenyl-6-(thiophen-2-yl)thieno[2,3-b]pyridin-3-ol] was 135 nM. Take `Nc1c(S(=O)(=O)N2CCCCC2)sc2nc(-c3cccs3)cc(-c3ccccc3)c12` [SW 218400]: the “extent of 15-PGDH inhibition (remark)” value is recorded as “incomplete inhibition”. Besides, the IC50 under setting [2] was above 100 nM. Regarding `CCCC[S+]([O-])c1sc2nc(-c3nccs3)cc(-c3c(C)ncn3C)c2c1N` (stereo not drawn) [SW 218475, 2-(butylsulfinyl)-4-(1,4-dimethyl-1H-imidazol-5-yl)-6-(thiazol-2-yl)thieno[2,3-b]pyridin-3-amine], the IC50 under setting [2] amounted to 3.4 nM. Take `CCCC[S+]([O-])c1sc2nc(-c3nccs3)cc(-c3cnc(CC)n3C)c2c1N` (stereo not drawn) [SW 218476, 2-(butylsulfinyl)-4-(2-ethyl-1-methyl-1H-imidazol-5-yl)-6-(thiazol-2-yl)thieno[2,3-b]pyridin-3-amine]: the IC50 under setting [2] was found to be 2 nM. Consider `CCCC[S+]([O-])c1sc2nc(-c3nccs3)cc(-c3ncn(C)c3C)c2c1N` (stereo not drawn) [SW 218477, 2-(butylsulfinyl)-4-(1,5-dimethyl-1H-imidazol-4-yl)-6-(thiazol-2-yl)thieno[2,3-b]pyridin-3-amine], for which the IC50 under setting [2] was found to be 3.8 nM. Same read-out and setting: the value for `CCCC[S+]([O-])c1sc2nc(-c3nccs3)cc(-c3cnc(C)n3C3CC3)c2c1N` (stereo not drawn) [SW 218478, 2-(butylsulfinyl)-4-(1-cyclopropyl-2-methyl-1H-imidazol-5-yl)-6-(thiazol-2-yl)thieno[2,3-b]pyridin-3-amine] was 2.4 nM; that for `Nc1c([S+]([O-])C2CCCCC2)sc2nc(-c3cccs3)cc(-c3ccccc3)c12` (stereo not drawn) [SW 218520, 2-(cyclohexylsulfinyl)-4-phenyl-6-(thiophen-2-yl)thieno[2,3-b]pyridin-3-amine] was 3.3 nM.

On to `CCCC[S+]([O-])c1sc2nc(-c3nccs3)cc(-c3nccn3CC)c2c1N` (stereo not drawn) [SW 218521, 2-(butylsulfinyl)-4-(1-ethyl-1H-imidazol-2-yl)-6-(thiazol-2-yl)thieno[2,3-b]pyridin-3-amine], for which the IC50 under setting [2] is 2.2 nM.

Source of the values: patent US20180118756A1, “COMPOSITIONS AND METHODS OF MODULATING SHORT-CHAIN DEHYDROGENASE ACTIVITY” (CASE WESTERN RESERVE UNIVERSITY, priority 2015, published 2018).
